Values quoted from earlier work in patent US20100215725A1, “PHARMACEUTICAL COMPOSITION CONTAINING IDEBENONE FOR THE TREATMENT OF LIVER DISORDERS” (priority 2009, published 2010).

System: rat liver microsomes
Settings: pro-oxidative system NADPH/ADP/Fe3+

Row | concentration offering complete protection against lipid peroxidation in microsomes | Compound
1 | 100 µM | COC1=C(OC)C(=O)C(C/C=C(\C)CC/C=C(\C)CC/C=C(\C)CC/C=C(\C)CC/C=C(\C)CC/C=C(\C)CC/C=C(\C)CC/C=C(\C)CC/C=C(\C)CCC=C(C)C)=C(C)C1=O [coenzyme Q-10]
2 | 20 µM | COC1=C(OC)C(=O)C(CCCCCCCCCCO)=C(C)C1=O [Idebenone, 2,3-dimethoxy-5-methyl-6-(10-hydroxydecyl)-1,4-benzoquinone]
